Experimental data published in patent US11395815B2, “Compound for treating osteoarthritis” (Ascentage Pharma (Suzhou) Co., Ltd., priority 2018, dated 2022).

Experiments:
mouse ACLT model [1] = assay: Weight bearing test in mouse osteoarthritis (ACLT) model; assay type: in vivo; details: for weight bearing % (weight on operated limb versus contralateral unoperated limb): 13 days after first dose
Source text: C57BL/6 mice aged 10 weeks were used for the study (n=12 for each group). Anterior cruciate ligament transection (ACLT) model was used to simulate the pathological condition in OA. To conduct ACLT surgery, the joint capsule of the right rear limb of mice was opened, and the anterior cruciate ligament (ACL) was transected with micro-scissors under a surgical microscope. After irrigation with saline to remove tissue debris, the skin incision was closed. Blank vehicle contained 5% Pluronic F68 (BASF, Germany) in 10 mM phosphate buffered saline (PBS, NaH2PH4/Na2HPO4) with pH adjusted to 7.4. Before each injection and sacrificing at the end point, the function of the limbs was assessed by a weight bearing test. All the mice were sacrificed for pathological evaluation and immunohistochemical staining 13 days after first dosing. Weight bearing test was conducted using a […] model 600MR (IITC Life Science, CA, USA). Briefly, after calibration of the equipment, mice were placed inside the chamber to stand with each hind paw on a scale, allowed to stand for 5-10 s until the readings were stable. The readings reflected the weight that was placed on each hind limb. The ACLT surgery caused osteoarthritis (OA) and decreased the weight placed on the hind limb. The results were expressed as the percentage of the weight placed on the operated limb versus the contralateral unoperated limb (weight bearing %). The value of weight bearing % is expected to be 100 in healthy mice, indicating the same weight placed on both limbs. The value of weight bearing % will decrease to 50˜60 after ACLT surgery due to less weight that could be placed on the operated limb than the unoperated limb. Alleviation of joint pain by […] should be reflected by an increased value of weight bearing %.

mouse ACLT model [2] = assay: Pathological evaluation of mouse joints (safranin O staining) in ACLT model; assay type: in vivo; details: intra-articular, joints taken 13 days after first dosing, safranin O sections
Source text: C57BL/6 mice aged 10 weeks were used for the study (n=12 for each group). Anterior cruciate ligament transection (ACLT) model was used to simulate the pathological condition in OA. To conduct ACLT surgery, the joint capsule of the right rear limb of mice was opened, and the anterior cruciate ligament (ACL) was transected with micro-scissors under a surgical microscope. After irrigation with saline to remove tissue debris, the skin incision was closed. Blank vehicle contained 5% Pluronic F68 (BASF, Germany) in 10 mM phosphate buffered saline (PBS, NaH2PH4/Na2HPO4) with pH adjusted to 7.4. Before each injection and sacrificing at the end point, the function of the limbs was assessed by a weight bearing test. All the mice were sacrificed for pathological evaluation and immunohistochemical staining 13 days after first dosing. Mouse joints were fixed in 4% paraformaldehyde overnight, dehydrated in increasing concentrations of ethanol and embedded in paraffin. Sections (5 μm) were cut from the paraffin blocks and applied to glass slides. The sections were stained for proteoglycans with aqueous safranin O (0.1%) for 5 min, and the specimens were then mounted.

In the case of CCN1[C@@H](C(=O)NC23CCC(C(=O)O)(CC2)CC3)[C@H](c2cccc(Cl)c2F)[C@]2(C(=O)Nc3cc(Cl)ccc32)C12CCCCC2 [compound A], the “weight bearing % (weight on operated limb versus contralateral unoperated limb)” value (“weight bearing %” below) (mouse ACLT model [1]; 0.01 μmol (1 mM, 10 uL) intra-articular, compared with untreated control (P<0.05) and vehicle control (P<0.0001)) is reported as “significantly increased value of weight bearing %”, the “weight bearing %” value (mouse ACLT model [1]; 0.05 μmol (5 mM, 10 uL) intra-articular, P<0.05 vs 1 mM compound A group) is reported as “further increase in the value of weight bearing %” and the “weight bearing %” value (mouse ACLT model [1]; C57BL/6 mice, ACLT, intra-articular injection, across doses 0.01 and 0.05 μmol) is reported as “dose-dependent effect in improving weight bearing %”. The joint pain (mouse ACLT model [1]; mouse ACLT model, intra-articular injection) was “significantly relieved the joint pain”, the cartilage development (mouse ACLT model [2]) was “increased cartilage development” and the “pathological changes (articular cartilage erosion, proteoglycan loss, thinning and calcification of articular cartilage)” value (mouse ACLT model [2]) was “attenuated”.
